Experiment [1] addresses GCGR (Homo sapiens, UniProt P47871). Nature of the experiment: cAMP receptor activation assay, human GCGR cloned into CHO cells (DiscoverX LeadHunter / cAMP Hunter). It counts as cell-based. The arrangement: host or cells: CHO-K1.
Protocol: (§1) Cellular assays were carried out using standard cellular assays (DiscoveRx, LeadHunter assays) using readout of cAMP stimulation or arrestin activation. Compounds were weighed precisely in an amount of approximately 1 mg and shipped to DiscoverX (Fremont, Calif.) for dilution and assay. […] Assays were carried out in the presence of 0.1% ovalbumin. […] Use of 0.1% ovalbumin can avoid this problem.
(§2) Assays were carried out in the presence of 0.1% ovalbumin. […] Use of 0.1% ovalbumin can avoid this problem.
(§3) Receptor activation assays were performed at DiscoverX laboratories (Fremont, Calif.) using human GLP-1R and GCGR cloned into Chinese Hamster Ovary (CHO) cells (LeadHunter Discovery Services; assay product 86-0007D cAMP Hunter™ using huGLP1R and huGCGR; whole cell cAMP accumulation assays; cell lines used were cAMP Hunter™ CHO-K1 GCGR Gs Cell Line, catalog 95-0042C2 and cAMP Hunter™ CHO-K1 GLP1 Gs Cell Line, catalog 95-0062C2; readout of accumulated cAMP was made using readout HitHunter cAMP XS+ assay). Cell lines are maintained at DiscoverX and were incubated with test agents for 30 m at 37° C. for accumulation of cAMP. […] Results described herein are from single assays performed on cells in duplicate and data were replotted in Prism 5 to provide pEC50 (SE) data.
(§4) In vitro data are presented as pEC50 (SE) determined in Prism 5 by nonlinear regression analysis of the raw fluorescence data normalized by corresponding response to internal standards (see Supporting Information for data plots).
Experiment [2] deals with T1, human GLP-1R (Homo sapiens, UniProt P43220).
T1 construct: host or cells: CHO-K1
Briefly: cAMP receptor activation assay, human GLP-1R cloned into CHO cells (DiscoverX LeadHunter / cAMP Hunter). It counts as cell-based. The following applies: for Selectivity Ratio GLP-1R vs GCGR: SR = GCGR EC50/GLP-1 EC50, 0.1% BSA.
Protocol: as §1, §2, §3, §4

[3] abbreviates: cAMP, CHO cells, 0.1% BSA containing buffers, read-out: pEC50 (SE) hu GLP-1 (converted).
Setting [4] is: ratio of EC50 in 0.1% BSA and 0.1% ovalbumin.
[5] abbreviates: cAMP, CHO cells, 0.1% BSA containing buffers, read-out: pEC50 (SE) huGCGR (converted).

Here are results for 9 compounds from US20210290732A1, “GLP-1R and GCGR Agonists, Formulations, and Methods of Use” (Spitfire Pharma LLC, priority 2020, published 2021).

Like-named read-outs stand apart in the source and are kept apart here.

GCGR, sequence (P47871 26-477): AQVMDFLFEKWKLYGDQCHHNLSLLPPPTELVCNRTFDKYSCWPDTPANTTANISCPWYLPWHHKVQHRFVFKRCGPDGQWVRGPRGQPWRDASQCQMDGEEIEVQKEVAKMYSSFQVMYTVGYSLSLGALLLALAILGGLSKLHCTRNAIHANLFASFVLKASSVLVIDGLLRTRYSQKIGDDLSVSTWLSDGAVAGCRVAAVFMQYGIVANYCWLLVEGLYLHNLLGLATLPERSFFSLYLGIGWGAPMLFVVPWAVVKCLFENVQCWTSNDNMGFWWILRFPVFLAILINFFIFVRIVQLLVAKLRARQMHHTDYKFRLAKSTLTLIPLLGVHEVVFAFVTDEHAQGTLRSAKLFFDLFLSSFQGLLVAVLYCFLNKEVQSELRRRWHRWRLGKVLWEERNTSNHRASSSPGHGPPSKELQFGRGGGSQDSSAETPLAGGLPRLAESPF
T1 sequence (P43220 24-463): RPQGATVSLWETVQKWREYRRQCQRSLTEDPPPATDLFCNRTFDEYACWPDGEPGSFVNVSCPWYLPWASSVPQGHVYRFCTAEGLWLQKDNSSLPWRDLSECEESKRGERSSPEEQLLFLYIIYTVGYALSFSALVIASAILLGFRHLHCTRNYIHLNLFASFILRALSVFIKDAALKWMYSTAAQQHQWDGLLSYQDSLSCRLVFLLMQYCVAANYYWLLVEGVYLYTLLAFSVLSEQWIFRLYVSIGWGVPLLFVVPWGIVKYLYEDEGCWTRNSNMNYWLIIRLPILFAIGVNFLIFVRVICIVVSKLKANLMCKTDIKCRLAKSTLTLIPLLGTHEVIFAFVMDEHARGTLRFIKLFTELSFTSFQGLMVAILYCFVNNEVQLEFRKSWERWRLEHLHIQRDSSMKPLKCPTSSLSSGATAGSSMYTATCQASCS

For the compound `CC[C@H](C)[C@H](NC(=O)[C@H](Cc1ccccc1)NC(=O)[C@H](CCC(=O)O)NC(=O)[C@@H]1CCCCNC(=O)CC[C@H](NC(=O)[C@H](CC(=O)O)NC(=O)[C@H](CC(C)C)NC(=O)[C@H](Cc2ccc(O)cc2)NC(=O)[C@H](CCCCN)NC(=O)[C@H](CO)NC(=O)[C@H](Cc2ccc(O)cc2)NC(=O)[C@H](CC(=O)O)NC(=O)[C@H](CO)NC(=O)[C@@H](NC(=O)[C@H](Cc2ccccc2)NC(=O)[C@@H](NC(=O)CNC(=O)[C@H](CCC(N)=O)NC(=O)C(C)(C)NC(=O)[C@@H](N)Cc2c[nH]cn2)[C@@H](C)O)[C@@H](C)O)C(=O)N[C@@H](CCC(N)=O)C(=O)N[C@@H](C)C(=O)N[C@@H](C)C(=O)N1)C(=O)N[C@@H](CCCCNC(=O)[C@H]1O[C@@H](OCCCCCCCCCCCCCCCCCC(=O)O)[C@H](O)[C@@H](O)[C@@H]1O)C(=O)N[C@@H](Cc1c[nH]c2ccccc12)C(=O)N[C@@H](CC(C)C)C(=O)N[C@@H](CC(C)C)C(=O)N[C@@H](CCC(N)=O)C(=O)N[C@H](C(N)=O)[C@@H](C)O` [EU-A1872], the EC50 in experiment [1] (read-out: EC50 cAMP glucagon R (pM) 0.1% Ovalb, Table 5, 0.1% ovalbumin) was 86 pM; in experiment [2] (read-out: EC50 cAMP GLP-1 R (pM) 0.1% BSA, Table 5, 0.1% BSA) it was 1270 pM; in experiment [2] (read-out: EC50 cAMP GLP-1 R (pM) 0.1% BSA, Table 6, 0.1% BSA) it was 1270 pM.
Take `CCCCCCCCCCCCCCO[C@@H]1O[C@H](C(=O)N[C@@H](CCC(=O)NCCCC[C@H](NC(=O)[C@@H](NC(=O)[C@H](Cc2ccccc2)NC(=O)[C@H](CCC(=O)O)NC(=O)[C@@H]2CCCCNC(=O)CC[C@H](NC(=O)[C@H](CC(=O)O)NC(=O)[C@H](CC(C)C)NC(=O)[C@H](Cc3ccc(O)cc3)NC(=O)[C@H](CCCCN)NC(=O)[C@H](CO)NC(=O)[C@H](Cc3ccc(O)cc3)NC(=O)[C@H](CC(=O)O)NC(=O)[C@H](CO)NC(=O)[C@@H](NC(=O)[C@H](Cc3ccccc3)NC(=O)[C@@H](NC(=O)CNC(=O)[C@H](CCC(N)=O)NC(=O)C(C)(C)NC(=O)[C@@H](N)Cc3c[nH]cn3)[C@@H](C)O)[C@@H](C)O)C(=O)N[C@@H](CCC(N)=O)C(=O)N[C@@H](C)C(=O)N[C@@H](C)C(=O)N2)[C@@H](C)CC)C(=O)N[C@@H](Cc2c[nH]c3ccccc23)C(=O)N[C@@H](CC(C)C)C(=O)N[C@@H](CC(C)C)C(=O)N[C@@H](CCC(N)=O)C(=O)N[C@H](C(N)=O)[C@@H](C)O)C(=O)O)[C@@H](O)[C@H](O)[C@H]1O` [analogue 14]: the “GCGR activation potency (vs 4)” value in experiment [1] is “significantly weakened GCGR activation potency”. In experiment [2], the “Selectivity Ratio GLP-1R vs GCGR” value amounted to 2. In experiment [2] (setting [3]), the EC50 is 42.7 pM.
As to `CC[C@H](C)[C@H](NC(=O)[C@H](Cc1ccccc1)NC(=O)[C@H](CCC(=O)O)NC(=O)[C@@H]1CCCCNC(=O)CC[C@H](NC(=O)[C@H](CC(=O)O)NC(=O)[C@H](CC(C)C)NC(=O)[C@H](Cc2ccc(O)cc2)NC(=O)[C@H](CCCCN)NC(=O)[C@H](CO)NC(=O)[C@H](Cc2ccc(O)cc2)NC(=O)[C@H](CC(=O)O)NC(=O)[C@H](CO)NC(=O)[C@@H](NC(=O)[C@H](Cc2ccccc2)NC(=O)[C@@H](NC(=O)CNC(=O)[C@H](CCC(N)=O)NC(=O)C(C)(C)NC(=O)[C@@H](N)Cc2c[nH]cn2)[C@@H](C)O)[C@@H](C)O)C(=O)N[C@@H](CCC(N)=O)C(=O)N[C@@H](C)C(=O)N[C@@H](C)C(=O)N1)C(=O)N[C@@H](CCCCNC(=O)[C@H]1O[C@@H](OCCCCCCCCCCCCCCCC(=O)O)[C@H](O)[C@@H](O)[C@@H]1O)C(=O)N[C@@H](Cc1c[nH]c2ccccc12)C(=O)N[C@@H](CC(C)C)C(=O)N[C@@H](CC(C)C)C(=O)N[C@@H](CCC(N)=O)C(=O)N[C@H](C(N)=O)[C@@H](C)O` [EU-A1871], the EC50 in experiment [1] (EC50 cAMP glucagon R (pM) 0.1% BSA, Table 5, 0.1% BSA) was found to be 461 pM; in experiment [2] (EC50 cAMP GLP-1 R (pM) 0.1% BSA, Table 5, 0.1% BSA), 162 pM.
As to `CC[C@H](C)[C@H](NC(=O)[C@H](Cc1ccccc1)NC(=O)[C@H](CCC(=O)O)NC(=O)[C@@H]1CCCCNC(=O)CC[C@H](NC(=O)[C@H](CC(=O)O)NC(=O)[C@H](CC(C)C)NC(=O)[C@H](Cc2ccc(O)cc2)NC(=O)[C@H](CCCCN)NC(=O)[C@H](CO)NC(=O)[C@H](Cc2ccc(O)cc2)NC(=O)[C@H](CC(=O)O)NC(=O)[C@H](CO)NC(=O)[C@@H](NC(=O)[C@H](Cc2ccccc2)NC(=O)[C@@H](NC(=O)CNC(=O)[C@H](CCC(N)=O)NC(=O)C(C)(C)NC(=O)[C@@H](N)Cc2c[nH]cn2)[C@@H](C)O)[C@@H](C)O)C(=O)N[C@@H](CCC(N)=O)C(=O)N[C@@H](C)C(=O)N[C@@H](C)C(=O)N1)C(=O)N[C@@H](CCCCNC(=O)[C@H]1O[C@@H](OCCCCCCCCCCCCCCCC(=O)O)[C@H](O)[C@@H](O)[C@@H]1O)C(=O)N[C@@H](Cc1c[nH]c2ccccc12)C(=O)N[C@@H](CC(C)C)C(=O)N[C@@H](CC(C)C)C(=O)N[C@@H](CCC(N)=O)C(=O)N[C@H](C(N)=O)[C@@H](C)O` [analogue 15], the EC50 in experiment [1] (cAMP, CHO cells, 0.1% OVA containing buffers, read-out: EC50 hGCGR) was 65 pM; in experiment [2] (cAMP, CHO cells, 0.1% OVA containing buffers, read-out: pEC50 (SE) hu GLP-1 (converted)) it was 38 pM.
In the case of exendin-4 [reference compound], in experiment [2], the “Fold Improvement GLP-1R” value is reported as 1 and the “fold improvement on replacing BSA (0.1%) with OVA (0.1%)” value is reported as “negligible”.
For `CCCCCCCCCCCCCCCCO[C@@H]1O[C@H](CO[C@H]2O[C@H](C(=O)NCCCC[C@@H]3NC(=O)[C@@H](NC(=O)[C@H](CC(=O)O)NC(=O)[C@H](CC(C)C)NC(=O)[C@H](Cc4ccc(O)cc4)NC(=O)[C@H](CCCCN)NC(=O)[C@H](CO)NC(=O)[C@H](Cc4ccc(O)cc4)NC(=O)[C@H](CC(=O)O)NC(=O)[C@H](CO)NC(=O)[C@@H](NC(=O)[C@H](Cc4ccccc4)NC(=O)[C@@H](NC(=O)CNC(=O)[C@H](CCC(N)=O)NC(=O)C(C)(C)NC(=O)[C@@H](N)Cc4c[nH]cn4)[C@@H](C)O)[C@@H](C)O)CCC(=O)NCCCC[C@@H](C(=O)N[C@@H](CCC(=O)O)C(=O)N[C@@H](Cc4ccccc4)C(=O)N[C@H](C(=O)N[C@@H](CCC(N)=O)C(=O)N[C@@H](Cc4c[nH]c5ccccc45)C(=O)N[C@@H](CC(C)C)C(=O)N[C@@H](CC(C)C)C(=O)N[C@@H](CCC(N)=O)C(=O)N[C@H](C(N)=O)[C@@H](C)O)[C@@H](C)CC)NC(=O)[C@H](C)NC(=O)[C@H](C)NC3=O)[C@H](O)[C@H](O)[C@H]2O)[C@@H](O)[C@H](O)[C@H]1O` [EU-A1588], in experiment [1] (setting [4]), the “Ovalbumin vs. BSA - fold improv/worsen GCG R” value was 6 fold. In experiment [2] (setting [4]), the “Ovalbumin vs. BSA - fold improv/worsen GLP-1 R” value was determined as 5 fold.
`CCCCCCCCCCCCCCCCCCO[C@@H]1O[C@H](C(=O)NCCCC[C@H](NC(=O)[C@@H](NC(=O)[C@H](Cc2ccccc2)NC(=O)[C@H](CCC(=O)O)NC(=O)[C@@H]2CCCCNC(=O)CC[C@H](NC(=O)[C@H](CC(=O)O)NC(=O)[C@H](CC(C)C)NC(=O)[C@H](Cc3ccc(O)cc3)NC(=O)[C@H](CCCCN)NC(=O)[C@H](CO)NC(=O)[C@H](Cc3ccc(O)cc3)NC(=O)[C@H](CC(=O)O)NC(=O)[C@H](CO)NC(=O)[C@@H](NC(=O)[C@H](Cc3ccccc3)NC(=O)[C@@H](NC(=O)CNC(=O)[C@H](CCC(N)=O)NC(=O)C(C)(C)NC(=O)[C@@H](N)Cc3c[nH]cn3)[C@@H](C)O)[C@@H](C)O)C(=O)N[C@@H](CCC(N)=O)C(=O)N[C@@H](C)C(=O)N[C@@H](C)C(=O)N2)[C@@H](C)CC)C(=O)N[C@@H](Cc2c[nH]c3ccccc23)C(=O)N[C@@H](CC(C)C)C(=O)N[C@@H](CC(C)C)C(=O)N[C@@H](CCC(N)=O)C(=O)N[C@H](C(N)=O)[C@@H](C)O)[C@@H](O)[C@H](O)[C@H]1O` [analogue 6]: the “Selectivity Ratio (SR=GCGR EC50/GLP-1 EC50)” value in experiment [1] is recorded as 17. Also, the EC50 in experiment [1] (text on Table 17, read-out: EC50 values for GCGR) worked out at 884 pM. In experiment [2], the “Selectivity Ratio GLP-1R vs GCGR” value turned out to be 17.
Take `CCCCCCCCCCCCO[C@@H]1O[C@H](C(=O)NCCCC[C@H](NC(=O)[C@@H](NC(=O)[C@H](Cc2ccccc2)NC(=O)[C@H](CCC(=O)O)NC(=O)[C@@H]2CCCCNC(=O)CC[C@H](NC(=O)[C@H](CC(=O)O)NC(=O)[C@H](CC(C)C)NC(=O)[C@H](Cc3ccc(O)cc3)NC(=O)[C@H](CCCCN)NC(=O)[C@H](CO)NC(=O)[C@H](Cc3ccc(O)cc3)NC(=O)[C@H](CC(=O)O)NC(=O)[C@H](CO)NC(=O)[C@@H](NC(=O)[C@H](Cc3ccccc3)NC(=O)[C@@H](NC(=O)CNC(=O)[C@H](CCC(N)=O)NC(=O)C(C)(C)NC(=O)[C@@H](N)Cc3c[nH]cn3)[C@@H](C)O)[C@@H](C)O)C(=O)N[C@@H](CCC(N)=O)C(=O)N[C@@H](C)C(=O)N[C@@H](C)C(=O)N2)[C@@H](C)CC)C(=O)N[C@@H](Cc2c[nH]c3ccccc23)C(=O)N[C@@H](CC(C)C)C(=O)N[C@@H](CC(C)C)C(=O)N[C@@H](CCC(N)=O)C(=O)N[C@H](C(N)=O)[C@@H](C)O)[C@@H](O)[C@H](O)[C@H]1O` [analogue 3]: the EC50 in experiment [1] (setting [5]) is 28.8 pM.
With `CCCCCCCCO[C@@H]1O[C@H](C(=O)NCCCC[C@H](NC(=O)[C@@H](NC(=O)[C@H](Cc2ccccc2)NC(=O)[C@H](CCC(=O)O)NC(=O)[C@@H]2CCCCNC(=O)CC[C@H](NC(=O)[C@H](CC(=O)O)NC(=O)[C@H](CC(C)C)NC(=O)[C@H](Cc3ccc(O)cc3)NC(=O)[C@H](CCCCN)NC(=O)[C@H](CO)NC(=O)[C@H](Cc3ccc(O)cc3)NC(=O)[C@H](CC(=O)O)NC(=O)[C@H](CO)NC(=O)[C@@H](NC(=O)[C@H](Cc3ccccc3)NC(=O)[C@@H](NC(=O)CNC(=O)[C@H](CCC(N)=O)NC(=O)C(C)(C)NC(=O)[C@@H](N)Cc3c[nH]cn3)[C@@H](C)O)[C@@H](C)O)C(=O)N[C@@H](CCC(N)=O)C(=O)N[C@@H](C)C(=O)N[C@@H](C)C(=O)N2)[C@@H](C)CC)C(=O)N[C@@H](Cc2c[nH]c3ccccc23)C(=O)N[C@@H](CC(C)C)C(=O)N[C@@H](CC(C)C)C(=O)N[C@@H](CCC(N)=O)C(=O)N[C@H](C(N)=O)[C@@H](C)O)[C@@H](O)[C@H](O)[C@H]1O` [analogue 1], the EC50 is 20 pM in experiment [1] (setting [5]); 8 pM in experiment [2] (cAMP, CHO cells, 0.1% BSA containing buffers, read-out: EC50 hGLP-1R); 8.51 pM in experiment [2] (setting [3]). In experiment [2], the “Selectivity Ratio GLP-1R vs GCGR” value is reported as 3.
